For nine compounds, inhibition in vivo and IC50 results are on record in patent US5093351A, “Substituted indole, benzofuran and benzothiophene derivatives as 5-lipoxygenase inhibitors” (Du Pont Merck Pharmaceutical Company, priority 1989, dated 1992).

As a reminder, the inhibition in vivo is the percentage by which the read-out fell short of the control. Higher therefore signals a response far below the control. As usually defined, the IC50 is the concentration needed to halve the response being measured.

One assay relates to arachidonic acid-induced ear edema. Kind of assay: Arachidonic acid-induced ear edema in CF1 mice, topical. It counts as in vivo. Particulars: Mus musculus, 1 h, 100 μg/ear, topical in acetone just prior to 1 mg arachidonic acid, one hour after challenge. As for the experimental part: This assay indicates a specific use in the treatment of skin diseases such as psoriasis. This assay also implies a reduction in leukotrienes caused by the compounds of the invention, and indicates the use of these compounds in other diseases where the production of leukotrienes is involved in the pathological process.
The assay is a modification of the procedure described by Young et al. (J. Invest. Dermatol. (1983) 80, 48). 1 mg of arachidonic acid is applied as an acetone solution to the inner surface of the pinna of CF1 mice. Test compound dissolved in acetone is applied to the ear just prior to the arachidonic acid challenge. One hour after challenge, 6 mm disks are removed from the ear with a biopsy punch, and the weight is determined. The results are determined as a percent inhibition of the swelling which occurs in the absence of the test compound.
`Cn1ccc2c(O)c(Cc3ccccc3)ccc21` [Example 1a, 1-Methyl-4-hydroxy-5-phenylmethylindole] registered an inhibition in vivo at 100 µg/ear of 74%.
The compound `Oc1c(Cc2ccccc2)ccc2sccc12` [Example 1b] returned an inhibition in vivo at 100 µg/ear of 53%.
Still for that read-out and setting: the result for `Oc1c(Cc2ccccc2)ccc2occc12` [Example 1c] reads 42%; that for `Oc1c(Cc2ccccc2)ccc2c1ccn2Cc1ccccc1` [Example 1d], 41%; that for `COc1ccc(Cc2ccc3c(ccn3C)c2O)cc1` [Example 1e], 64%.
On the same count and under the same terms, the same measure for `Cn1ccc2c(O)c(Cc3ccc4c(c3)OCO4)ccc21` [Example 1g]: 54%; for `CC(=O)Oc1c(Cc2ccccc2)ccc2c1ccn2C` [Example 6a, 1-Methyl-4-acetoxy-5-phenylmethylindole]: 72%; for `CC(=O)Oc1c(Cc2cccs2)ccc2c1ccn2C` [Example 6b]: 54%.
Still for that read-out and setting: the result for `COc1ccc(Cc2ccc3c(ccn3C)c2OC(C)=O)cc1` [Example 6c] reads 72%.

A further assay has as its target T1, 5-lipoxygenase (Rattus norvegicus, UniProt P12527).
T1 construct: endogenous in cells; host or cells: RBL-1 (rat basophilic leukemia) cells, 10,000×g supernatant of homogenate
T1 sequence (P12527 1-673): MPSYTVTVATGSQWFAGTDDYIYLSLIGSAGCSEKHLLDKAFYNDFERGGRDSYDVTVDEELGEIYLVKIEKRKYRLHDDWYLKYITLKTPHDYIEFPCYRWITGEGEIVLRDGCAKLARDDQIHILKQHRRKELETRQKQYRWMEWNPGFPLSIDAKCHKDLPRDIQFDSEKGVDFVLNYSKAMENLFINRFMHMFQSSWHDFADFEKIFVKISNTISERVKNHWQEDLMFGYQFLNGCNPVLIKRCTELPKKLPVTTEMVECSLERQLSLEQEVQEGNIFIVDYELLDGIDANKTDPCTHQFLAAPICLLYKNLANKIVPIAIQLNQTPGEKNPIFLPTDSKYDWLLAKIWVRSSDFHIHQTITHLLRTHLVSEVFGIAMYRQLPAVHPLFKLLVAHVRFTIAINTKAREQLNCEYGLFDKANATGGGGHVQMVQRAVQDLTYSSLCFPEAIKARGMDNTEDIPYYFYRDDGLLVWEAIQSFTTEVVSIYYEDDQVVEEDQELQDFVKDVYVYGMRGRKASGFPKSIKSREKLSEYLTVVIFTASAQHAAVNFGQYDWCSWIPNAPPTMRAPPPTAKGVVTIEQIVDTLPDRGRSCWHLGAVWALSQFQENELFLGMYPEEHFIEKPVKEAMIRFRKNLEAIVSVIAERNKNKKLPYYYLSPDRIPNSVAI
Nature of the assay: 5-lipoxygenase inhibition, 10,000×g supernatant from homogenized rat basophilic leukemia (RBL-1) cells. The assay is classed as biochemical. Particulars: RBL-1 10,000×g supernatant, pH 7.0, 5 min incubation with compound, 14C-arachidonic acid, 37° C., two minutes. Here is the method: The test method is a modification of the procedure developed by Jakschik et al. (Prostaglandins (1978) 16, 733; Biochem. Biophys. Res. Commun. (1980) 95, 103; Biochem. Biophys. Res. Commun. (1981) 102, 624).
The 10,000×g supernatant from homogenized RBL-1 cells was incubated with test compound in a pH 7.0 phosphate buffer for five minutes. ^14 C-arachidonic acid was added to initiate the reaction, which was allowed to continue at 37° C. for two minutes. The reaction was stopped by freezing in a dry ice/ethanol slurry, and the 5-lipoxygenase products were separated from the substrate on silica gel columns. The amount of individual lipoxygenase products produced was determined and the percent inhibition calculated.
As for `Cn1ccc2c(O)c(Cc3ccccc3)ccc21` [Example 1a, 1-Methyl-4-hydroxy-5-phenylmethylindole], the IC50 came out at 56 nM.
In the case of `Oc1c(Cc2ccccc2)ccc2sccc12` [Example 1b], the IC50 stood at 130 nM.
Same read-out and setting: the same measure for `Oc1c(Cc2ccccc2)ccc2occc12` [Example 1c]: 400 nM.
On to `Oc1c(Cc2ccccc2)ccc2c1ccn2Cc1ccccc1` [Example 1d], for which the IC50 came to 42 nM.
As to `CC(=O)Oc1c(Cc2ccccc2)ccc2c1ccn2C` [Example 6a, 1-Methyl-4-acetoxy-5-phenylmethylindole], the IC50 turned out to be 420 nM.
